The values that follow come from patent US12152048B2, “Nitroxoline prodrug and use thereof” (Jiangsu Yahong Meditech Co., Ltd., priority 2018, dated 2024).

Each structure is given as a SMILES string. Converted amounts (≈) assume the structure as drawn. Bounds are passed on as bounds.

The nature of the series: Determination of water solubility in phosphate buffer. The following applies: for solubility at 24 h: thermodynamic from solid; for water solubility compared with nitroxoline: conclusion in words. It is filed as physicochemical. The text has this: Experimental instruments: 96-well filter plate (MSHVN4510 or MSHVN4550, Millipore); electronic digital display vortex mixer (MS3 Digital, IKA); multi-purpose vacuum pump (circulating water type, SHB-111, Zhengzhou Greatwall Scientific Industrial and Trade Co., Ltd.); balance (XSLT05, Mettler-Toledo); comfortable mixer (Eppendorf AG 22331 Hamburg, Eppendorf); liquid chromatography (LC-3AD, Shimadzu); mass spectrometry (API4000, Applied Biosystems, USA); sample injector (Anylytics AG System, CTC). Nitroxoline was prepared according to the method disclosed in Journal of Heterocyclic Chemistry, 1971, vol. 8, p 821 by Wisdom Pharmaceutical Co., Ltd.
Experimental process: 500 μL of phosphate buffer (pH=1.2, 4.5, 6.8 or 7.4) were added to a glass flask, to which 2 mg of compound powder were added. The flask was sealed with a cap and shaked on a mixer (VORTEX-GENIE2) at room temperature for 24 hours. The solution was subjected to vacuum filtration, and the filtrate was processed to determine the compound concentration by LC/MS/MS.

[1] abbreviates: aqueous buffer, phosphate buffer pH 7.4, room temperature.
Setting [2] is: simulated gastric fluid, phosphate buffer pH 1.2, room temperature.

With `CC(C)C(=O)N1CCC[C@@H]1C(=O)OCOc1ccc([N+](=O)[O-])c2cccnc12` [Compound 23, (R)-(5-nitroquinolin-8-yloxy)methyl 1-isopropionylpyrrolidine-2-carboxylate], the “water solubility compared with nitroxoline” value was “increased by several times”. The solubility (usually the dissolved amount per volume that the medium holds) at 24 h under setting [1] stood at 818 µg/mL (≈ 2110 µM). Besides, under setting [2], the solubility at 24 h was 945 µg/mL (≈ 2440 µM).

Consider `CSC[C@H](NC(C)=O)C(=O)OCOc1ccc([N+](=O)[O-])c2cccnc12` [Compound 16, (R)-(5-nitroquinolin-8-yloxy)methyl 2-acetamido-3-(methylthio)propionate], for which the solubility at 24 h is, setting by setting: under setting [1], 254 µg/mL (≈ 669 µM); under setting [2], 443 µg/mL (≈ 1170 µM).

Consider `COCC(=O)OCOc1ccc([N+](=O)[O-])c2cccnc12` [Compound 31, (5-nitroquinolin-8-yloxy)methyl 2-methoxyacetate], for which the solubility at 24 h under setting [1] came out at 10.8 µg/mL (≈ 37.1 µM).

For `O=C(O)CCC(=O)OCOc1ccc([N+](=O)[O-])c2cccnc12` [Compound 8, 4-((5-nitroquinolin-8-yloxy)methoxy)-4-oxobutanoic acid], the solubility at 24 h under setting [1] was below 0.44 µg/mL.

`O=C1CCCC(Oc2ccc([N+](=O)[O-])c3cccnc23)O1` (stereo not shown) [Compound 44, 6-(5-nitroquinolin-8-yloxy)-tetrahydropyran-2-one]: the solubility at 24 h under setting [1] is 19.9 µg/mL (≈ 68.9 µM).

`O=C(OCOc1ccc([N+](=O)[O-])c2cccnc12)C1CCC1` [Compound 32, (5-nitroquinolin-8-yloxy)methyl cyclobutanecarboxylate] displayed a solubility at 24 h under setting [1] of 28.4 µg/mL (≈ 94.1 µM).

`CCCCCCCCCCCC(=O)OCOc1ccc([N+](=O)[O-])c2cccnc12` [Compound 43, (5-nitroquinolin-8-yloxy)methyl dodecanoate] showed a solubility at 24 h under setting [1] below 0.25 µg/mL.

The compound `O=C(COc1ccc(Cl)cc1Cl)OCOc1ccc([N+](=O)[O-])c2cccnc12` [Compound 35, (5-nitroquinolin-8-yloxy)methyl 2-(2,4-dichlorophenoxy)acetate] had a solubility at 24 h under setting [1] of 0.04 µg/mL (≈ 0.0945 µM).

On to `CC(=O)N[C@@H](CO)C(=O)N1CCC[C@H]1C(=O)OCOc1ccc([N+](=O)[O-])c2cccnc12` [Compound 30, (S)-(5-nitroquinolin-8-yloxy)methyl 1-((S)-2-acetamido-3-hydroxypropionyl)pyrrolidine-2-carboxylate], for which the “water solubility compared with nitroxoline” value is listed as “increased by several times”. Also, under setting [1], the solubility at 24 h was below 0.25 µg/mL. The same compound yielded a solubility at 24 h under setting [2] of 940 µg/mL (≈ 2110 µM).

`CCCCCCCC(=O)OCOc1ccc([N+](=O)[O-])c2cccnc12` [Compound 41, (5-nitroquinolin-8-yloxy)methyl octanoate] yielded a solubility at 24 h under setting [1] below 0.4 µg/mL.

The compound `CCCCCCCCCC(=O)OCOc1ccc([N+](=O)[O-])c2cccnc12` [Compound 42, (5-nitroquinolin-8-yloxy)methyl decanoate] came in with a solubility at 24 h under setting [1] below 0.26 µg/mL.

Regarding `CCCCCC(=O)OCOc1ccc([N+](=O)[O-])c2cccnc12` [Compound 40, (5-nitroquinolin-8-yloxy)methyl hexanoate], the solubility at 24 h under setting [1] turned out to be 7.4 µg/mL (≈ 23.2 µM).

`CC(=O)Oc1ccccc1C(=O)OCOc1ccc([N+](=O)[O-])c2cccnc12` [Compound 34, (5-nitroquinolin-8-yloxy)methyl 2-acetoxybenzoate]: the solubility at 24 h under setting [1] stood at 6.67 µg/mL (≈ 17.4 µM).

With `CC(C)(C)C(=O)N1CCC[C@@H]1C(=O)OCOc1ccc([N+](=O)[O-])c2cccnc12` [Compound 24, (R)-(5-nitroquinolin-8-yloxy)methyl 1-pivaloylpyrrolidine-2-carboxylate], the solubility at 24 h is 73.6 µg/mL (≈ 183 µM) under setting [1] and 942 µg/mL (≈ 2350 µM) under setting [2].

Turning to `CC(C)OC(=O)OCOP(=O)(O)OCOc1ccc([N+](=O)[O-])c2cccnc12` [Compound 72, (hydroxy((5-nitroquinolin-8-yloxy)methoxy)phosphoryloxy)methyl isopropyl carbonate], the “water solubility compared with nitroxoline” value was “increased by several times”. Also, the solubility at 24 h under setting [1] was found to be 1040 µg/mL (≈ 2490 µM).
